Test: xn = mol fraction of the nth substance listed
Conditions: 101 kPa

viscosity (303.15 K, x1 = 1) [mPa·s] | viscosity (313.15 K, x1 = 1) [mPa·s] | viscosity (298.15 K, x2 = 0.2761) [mPa·s] | viscosity (298.15 K, x2 = 0.8745) [mPa·s] | viscosity (303.15 K, x2 = 0.5594) [mPa·s] | viscosity (303.15 K, x2 = 0.8745) [mPa·s] | viscosity (308.15 K, x2 = 0.5594) [mPa·s] | viscosity (323.15 K, x2 = 0.7786) [mPa·s] | viscosity (328.15 K, x2 = 0) [mPa·s] | viscosity (328.15 K, x2 = 0.7786) [mPa·s] | viscosity (338.15 K, x2 = 0.2761) [mPa·s] | viscosity (343.15 K, x2 = 0.2761) [mPa·s] | Compound
0.81 | 0.68 |  |  |  |  |  |  |  |  |  |  | O + CCOS(=O)(=O)[O-].CC[N+]1(C)CCOCC1
 |  | 690 | 7.7 | 94 | 6.5 | 72 | 8.8 | 780 | 7.6 | 86 | 69 | CCOS(=O)(=O)[O-].CC[N+]1(C)CCOCC1 + O
